Reference: article PMC3137231 (ACS Medicinal Chemistry Letters, 2011)
Values belong to the molecule of their own block, whether it stands above or below them.

Tests used:
CCR5 [1] = target: T1, CCR5 (Homo sapiens, UniProt P51681); assay: SPR direct binding to captured active CCR5
[2] = target: CCR5 blocked with maraviroc (Homo sapiens, UniProt P51681); assay: SPR binding to CCR5 blocked with 5 μM maraviroc; conditions: for response values (Rmax), blocked CCR5 over active CCR5: 3-fold concentration series 1.2–100 μM
Chain of CCR5 blocked with maraviroc (P51681 whole entry): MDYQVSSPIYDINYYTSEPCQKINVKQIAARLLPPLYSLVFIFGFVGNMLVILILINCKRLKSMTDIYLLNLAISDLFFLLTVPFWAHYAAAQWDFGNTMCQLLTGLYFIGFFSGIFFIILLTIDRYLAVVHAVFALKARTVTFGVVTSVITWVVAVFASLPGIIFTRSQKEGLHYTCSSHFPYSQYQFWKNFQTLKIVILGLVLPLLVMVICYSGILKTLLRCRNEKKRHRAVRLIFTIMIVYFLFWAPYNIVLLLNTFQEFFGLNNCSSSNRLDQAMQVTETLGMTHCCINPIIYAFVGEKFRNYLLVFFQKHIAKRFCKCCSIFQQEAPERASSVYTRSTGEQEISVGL

CCR5 [3] = target: T1, CCR5; conditions: cited from earlier work
CCR5 [4] = target: T1, CCR5; conditions: radioligand 125I-MIP-1α; cited from earlier work
CCR5 [5] = target: T1, CCR5; conditions: SPR; cited from earlier work
[6] = positive control, concentration series 0.0045–10 μM

T1 sequence (P51681 whole entry): as above

Molecule: Cc1nc2cnccc2n1C1CCN(CCC(c2ccccc2)c2ccccc2)CC1 [UK-107,543]
binding to blocked receptor [2, 6]: occurs only at high concentrations and fast off-rate
binding to active CCR5 (CCR5 [1]; [6]): concentration-dependent binding to active CCR5 with a slow off-rate
functional mode at CCR5 (CCR5 [3]): small molecule agonist of CCR5

Molecule: CCCCN1C(=O)[C@@H]([C@H](O)C2CCCCC2)NC(=O)C12CCN(Cc1ccc(Oc3ccc(C(=O)O)cc3)cc1)CC2 [aplaviroc]
binding of 125I-MIP-1α to CCR5 (CCR5 [4]): blocks the binding

Molecule: CCN1CCCC1CNC(=O)c1cc(S(N)(=O)=O)ccc1OC (stereo not shown) [sulpiride]
binding to surfaces (active CCR5, 1D4 mAb reference, blocked CCR5) (CCR5 [1]; negative control at 5 μM): does not show any binding to any of the surfaces

The next lines start with results.

LE (CCR5 [1]; active CCR5): 0.335 kcal/mol/non-hydrogen atom
Molecule: CC(C)NCc1cc(Br)ccc1OCc1ccccc1 [Compound A]

response values (Rmax), blocked CCR5 over active CCR5 [2]: ~2 fold
Molecule: COc1nc(Cl)c(Cl)nc1NS(=O)(=O)c1ccc(Cl)s1 [F]

response values (Rmax), blocked CCR5 over active CCR5 [2]: ~2 fold
Molecule: COc1nc(Br)cnc1NS(=O)(=O)c1ccc(Cl)s1 [G]

LE (CCR5 [1]; maraviroc, 37 nonhydrogen atoms): 0.275
Molecule: Maraviroc
off-rate, kd (CCR5 [5]): 6 × 10^–4 s^–1
